According to patent US11466012B2, “Tetrahydroisoquinoline compounds” (ALLINKY BIOPHARMA, priority 2018, dated 2022):

Experiments:
Type in all cases: cell-based
[1] = tested on: A549 lung carcinoma cell line bearing KRas^G12S oncogenic mutation; assay: Cell proliferation inhibition (MTS), A549; settings: Homo sapiens
Protocol: (§1) • Cell line #1: A549. Lung carcinoma cell line bearing KRas^G12S oncogenic mutation • Cell line #2: H358. non-small cell lung cancer line bearing KRas^G12C oncogenic mutation • Cell line #3: PANC-1. epithelioid carcinoma of the pancreas cell line bearing KRas^G12D oncogenic mutation • Cell line #4: RPMI. myeloma cell line bearing KRas^G12A oncogenic mutation
(§2) Cell lines were cultured in DMEM or RPMI-1640 supplemented with FBS 10%. In order to assess the antiproliferative effect of compounds, cells were seeded at a density of 1.8×10^3, 6.2×10^3, 7.8×10^3, 21×10^3 and 2×10^3 cells/cm^2, respectively, in tissue culture microplates and were incubated in humidified atmosphere at 5% CO2. 24 h later, compounds dissolved in DMSO 100% were added for different final concentrations ranging between 0.1 and 50 μM for a final DMSO concentration of 0.5% and the plates were incubated for another 72 h. After incubation, proliferation was quantified using CellTiter 96® Aqueous Non-Radioactive Cell Proliferation Assay-MTS (Promega #G5421) following manufacturer instructions. Amount of 490 nm absorbance is directly proportional to the number of living cells. Absorbance was recorded with a BMG Fluostar Optima Microplate Reader and normalized to control with vehicle.

[2] = tested on: RPMI-8226 myeloma cell line bearing KRas^G12A oncogenic mutation; assay: Cell proliferation inhibition (MTS), RPMI-8226; settings: Homo sapiens
Protocol: as §1, §2

[3] = tested on: H358 non-small cell lung cancer line bearing KRas^G12C oncogenic mutation; assay: Cell proliferation inhibition (MTS), H358; settings: Homo sapiens, NCI-H358
Protocol: as §1, §2

[4] = tested on: PANC-1 epithelioid carcinoma of the pancreas cell line bearing KRas^G12D oncogenic mutation; assay: Cell proliferation inhibition (MTS), PANC-1; settings: Homo sapiens
Protocol: as §1, §2

[5] = 72 h incubation, MTS, compounds 1-53, median from experimental results
[6] = compounds 54-63, based on estimations and/or preliminary experimental results

| Compound | IC50 [1, 5] [nM] | IC50 [2, 5] [nM] | IC50 [3, 5] [nM] | IC50 [4, 5] [nM] | IC50 [1, 6] [nM] | IC50 [2, 6] [nM] | IC50 [3, 6] [nM] | IC50 [4, 6] [nM] |
| --- | --- | --- | --- | --- | --- | --- | --- | --- |
| COc1cc2c(cc1OCCc1ccccn1)C(c1ccc(C)cc1C)N(C(=O)NCc1cocn1)CC2 (centres unmarked) [Compound 49] | > 1000 | > 1000 | > 1000 | > 1000 |  |  |  |  |
| CCC(=O)CN1CCc2cc(OC)c(OCCc3cccc(O)c3)cc2C1c1ccc(C)cc1Cl (centres unmarked) [Compound 12] | 8990 | 4980 | 16800 | 13600 |  |  |  |  |
| Cc1ccc(C2c3cc(OCCc4cccnc4)c(CO)cc3CCN2C(=O)NCc2cocn2)c(C)c1 (centres unmarked) [Compound 41] | 1270 | 1380 | 1140 | 2110 |  |  |  |  |
| CCC(=O)CCN1CCc2cc(OC)c(OCc3cccc(O)c3)cc2C1c1ccc(C)cc1Cl (centres unmarked) [Compound 2] | 8250 | 1800 | 12100 | 17300 |  |  |  |  |
| COc1cc2c(cc1OCCc1nccnc1OC)C(c1ccc(C)cc1C)N(C(=O)NCc1cocn1)CC2 (centres unmarked) [Compound 62] |  |  |  |  | 600 | 500 | 700 | 700 |
| COc1cc2c(cc1OCCc1cccc(O)c1)C(c1c(O)cc(C)cc1Cl)N(CCC(C)=O)CC2 (centres unmarked) [Compound 5] | 4820 | 1510 | > 20000 | > 30000 |  |  |  |  |
| Cc1ccc(C2c3cc(OCCc4cccnc4)c(F)cc3CCN2C(=O)NCc2cocn2)c(C)c1 (centres unmarked) [Compound 44] | 1720 | 990 | 1010 | 1000 |  |  |  |  |
| COc1cc2c(cc1OCCc1cccc(C(N)=O)c1)C(c1ccc(C)cc1C)N(C(=O)NCc1cocn1)CC2 (centres unmarked) [Compound 27] | 1020 | 980 | 1120 | 1330 |  |  |  |  |
| CCC(=O)CCN1CCc2cc(OC)c(OCCc3cccc(O)c3)cc2C1c1ccc(OC)c(OC)c1Cl (centres unmarked) [Compound 8] | 4110 | 2110 | 11200 | 11100 |  |  |  |  |
| CCC(=O)CCN1CCc2cc(OC)c(OCC(=O)c3cccc(C(=O)OC)c3)cc2C1c1ccc(C)cc1Cl (centres unmarked) [Compound 4] | 10100 | 2670 | > 20000 | 29700 |  |  |  |  |
| COc1cc2c(cc1OCCc1cccnc1OC)C(c1ccc(C)cc1C)N(C(=O)NCc1cocn1)CC2 (centres unmarked) [Compound 56] |  |  |  |  | 600 | 600 | 600 | 500 |
| COc1cc2c(cc1OCCc1cccc(OC(C)=O)c1)C(c1ccc(C)cc1C)N(C(=O)NCc1cocn1)CC2 (centres unmarked) [Compound 3] | 1970 | 1210 | 1660 | 1590 |  |  |  |  |
| CCC(=O)CCN1CCc2cc(OC)c(OCCc3cccc(O)c3)cc2C1c1ccc(C)cc1C (centres unmarked) [Compound 7] | 6340 | 2410 | 18100 | 24800 |  |  |  |  |
| COc1cc2c(cc1OCCc1cccc(O)c1)C(c1ccc(C)cc1C)N(C(=O)NCc1ccncc1)CC2 (centres unmarked) [Compound 16] | > 5000 | 480 | 7240 | 12000 |  |  |  |  |
| COc1cnc(CCOc2cc3c(cc2OC)CCN(C(=O)NCc2cocn2)C3c2ccc(C)cc2C)cn1 (centres unmarked) [Compound 63] |  |  |  |  | 600 | 500 | 700 | 700 |
| COc1cc2c(cc1OCCc1cccc(NC(C)=O)c1)C(c1ccc(C)cc1C)N(C(=O)NCc1cocn1)CC2 (centres unmarked) [Compound 47] | 1500 | 1500 | 1200 | 1500 |  |  |  |  |
| COc1cc2c(cc1OCCc1cnc(C)cn1)C(c1ccc(C)cc1C)N(C(=O)NCc1cocn1)CC2 (centres unmarked) [Compound 60] |  |  |  |  | 600 | 500 | 700 | 700 |
| COc1cncc(CCOc2cc3c(cc2OC)CCN(C(=O)NCc2cocn2)C3c2ccc(C)cc2C)n1 (centres unmarked) [Compound 54] |  |  |  |  | 600 | 500 | 700 | 700 |
| COc1cc2c(cc1OCCc1nccnc1C)C(c1ccc(C)cc1C)N(C(=O)NCc1cocn1)CC2 (centres unmarked) [Compound 59] |  |  |  |  | 600 | 500 | 700 | 7000 |
| COc1ccc(CCOc2cc3c(cc2OC)CCN(C(=O)NCc2cocn2)C3c2ccc(C)cc2C)cn1 (centres unmarked) [Compound 55] |  |  |  |  | 600 | 600 | 600 | 500 |
| COc1cc2c(cc1OCCc1ccc(C)nc1)C(c1ccc(C)cc1C)N(C(=O)NCc1cocn1)CC2 (centres unmarked) [Compound 57] |  |  |  |  | 600 | 600 | 600 | 500 |
| COc1cc2c(cc1OCCc1cncc(C)n1)C(c1ccc(C)cc1C)N(C(=O)NCc1cocn1)CC2 (centres unmarked) [Compound 61] |  |  |  |  | 600 | 500 | 700 | 700 |
| COc1cc2c(cc1OCCc1cccnc1C)C(c1ccc(C)cc1C)N(C(=O)NCc1cocn1)CC2 (centres unmarked) [Compound 58] |  |  |  |  | 600 | 600 | 600 | 500 |
| COc1cc2c(cc1OCCc1cccc(O)c1)C(c1ccc(C)cc1C)N(C(=O)NCc1cncs1)CC2 (centres unmarked) [Compound 19] | 950 | 2930 | 680 | 570 |  |  |  |  |
| COc1ccc(C2c3cc(OCCc4cccc(O)c4)c(OC)cc3CCN2CCC(C)=O)c(C)c1 (centres unmarked) [Compound 11] | 18000 | 1470 | 8520 | 12300 |  |  |  |  |
| COc1cc2c(cc1OCCc1ccccc1)C(c1ccc(C)cc1C)N(C(=O)NCc1cocn1)CC2 (centres unmarked) [Compound 22] | 890 | 820 | 650 | 600 |  |  |  |  |
| COc1cc2c(cc1OCCc1cccc(O)c1)C(c1ccc(C)cc1Cl)N(C(=O)NCc1ccncc1)CC2 (centres unmarked) [Compound 13] | 9370 | 2860 | 15800 | 12600 |  |  |  |  |
| COc1cc2c(cc1OCCc1ccc3c(c1)CCC3)C(c1ccc(C)cc1C)N(C(=O)NCc1ccncc1)CC2 (centres unmarked) [Compound 14] | > 10000 | 3940 | > 10000 | > 30000 |  |  |  |  |
| COc1cc2c(cc1OCCc1cccc(F)c1)C(c1ccc(C)cc1C)N(C(=O)NCc1cocn1)CC2 (centres unmarked) [Compound 21] | 1330 | 900 | 780 | 810 |  |  |  |  |

The remaining lines, values ahead:

| IC50 [1, 5] [nM] | IC50 [2, 5] [nM] | IC50 [3, 5] [nM] | IC50 [4, 5] [nM] | IC50 [1, 6] [nM] | IC50 [2, 6] [nM] | IC50 [3, 6] [nM] | IC50 [4, 6] [nM] | Compound |
| --- | --- | --- | --- | --- | --- | --- | --- | --- |
| 760 | 690 | 960 | 680 |  |  |  |  | COc1cc2c(cc1OCCc1cccc(O)c1)C(c1ccc(C)cc1Cl)N(C(=O)NCc1cocn1)CC2 (centres unmarked) [Compound 29] |
| 810 | 1210 | 710 | 740 |  |  |  |  | CC(=O)Nc1cc2c(cc1OCCc1cccnc1)C(c1ccc(C)cc1C)N(C(=O)NCc1cocn1)CC2 (centres unmarked) [Compound 37] |
| 550 | 580 | 520 | 530 |  |  |  |  | Cc1ccc(C2c3cc(OCCc4cccc(O)c4)c(O)cc3CCN2C(=O)NCc2cocn2)c(C)c1 (centres unmarked) [Compound 25] |
| 430 | 720 | 390 | 420 |  |  |  |  | Cc1ccc(C2c3cc(OCCc4cccnc4)c(C(N)=O)cc3CCN2C(=O)NCc2cocn2)c(C)c1 (centres unmarked) [Compound 34, 1-(2,4-dimethylphenyl)-N2-(oxazol-4-ylmethyl)-7-(2-(pyridin-3-yl)ethoxy)-3,4-dihydroisoquinoline-2,6(1H)-dicarboxamide] |
| 430 | 220 | 1090 | 420 |  |  |  |  | Cc1ccc(C2c3cc(OCCc4cccnc4)c(Cl)cc3CCN2C(=O)NCc2cocn2)c(C)c1 (centres unmarked) [Compound 38] |
| 600 | 500 | 700 | 700 |  |  |  |  | COc1cc2c(cc1OCCc1cnccn1)C(c1ccc(C)cc1C)N(C(=O)NCc1cocn1)CC2 (centres unmarked) [Compound 53] |
| 600 | 700 | 600 | 500 |  |  |  |  | COc1cc2c(cc1OCCc1cnccn1)C(c1ccc(C)cc1C)N(C(=O)NCc1ccon1)CC2 (centres unmarked) [Compound 52] |
| 440 | 520 | 310 | 490 |  |  |  |  | Cc1ccc(C2c3cc(OCCc4cccc(O)c4)c(C(=O)O)cc3CCN2C(=O)NCc2cocn2)c(C)c1 (centres unmarked) [Compound 32] |
| 340 | 410 | 520 | 470 |  |  |  |  | CC(=O)c1cc2c(cc1OCCc1cccnc1)C(c1ccc(C)cc1C)N(C(=O)NCc1cocn1)CC2 (centres unmarked) [Compound 39] |
| 740 | 610 | 910 | 880 |  |  |  |  | Cc1ccc(C2c3cc(OCCc4cccnc4)ccc3CCN2C(=O)NCc2cocn2)c(C)c1 (centres unmarked) [Compound 43] |
| 740 | 870 | 840 | 660 |  |  |  |  | Cc1ccc(C2c3cc(OCCc4cccc(O)c4)c(C(N)=O)cc3CCN2C(=O)NCc2cocn2)c(C)c1 (centres unmarked) [Compound 24] |
| 750 | 600 | 480 | 560 |  |  |  |  | COc1cc2c(cc1OCCc1cccc(O)c1)C(c1ccc(C)cc1C)N(C(=O)NCc1ccccn1)CC2 (centres unmarked) [Compound 20] |
